Laboratory results: patent US11447525B2 (NIIGATA UNIVERSITY, priority 2018, dated 2022)
Non-standard residues stand in square brackets, D forms with d. Residues, ends and D or L forms follow the SMILES beside them. *: point of attachment. 5FAM = O=C1OC2(c3ccc(O)cc3Oc3cc(O)ccc32)c2ccc(C(=O)*)cc21; NMeR = CN[C@@H](CCCNC(=N)N)C(=O)O

Legend:
[1] = system: pancreatic cancer cells (BxPC3, PK-8, MIA-Paca2); assay: Accumulation of FAM-labeled peptides in cells, inverted fluorescence microscope (Test Example 2); format: cell-based, human; settings: 2 μM, 37° C., 2 hours
Method: Tests were conducted to confirm the accumulation of each peptide in each of the cells shown below in Table 8. Further, among the peptides shown below in Table 9, the FAM-PCPP11 used in Test Example 1, the LL peptide in which the N-terminus had been FAM-labeled (FAM-LL), and the Ld peptide in which the N-terminus had been FAM-labeled (FAM-Ld) were used.
Each of FAM-PCPP11, FAM-LL and FAM-Ld was added to each of the cells shown in Table 8 in an amount sufficient to achieve a final concentration in the medium of 2 μM, and following cultivation of the cells at 37° C. for 2 hours, the sample was washed 3 times with a medium containing no peptide to remove any peptide within the medium. Subsequently, the incorporation of each of the peptides into each of the cells was evaluated visually using an inverted fluorescence microscope. Prior to the microscopic examination, the culture supernatant to which the peptide had been added was removed, and following washing three times with 1×PBS (−), a trypsin treatment was conducted to remove the adherent cells, and the resultant was immediately transferred into a new 96-well plate and once again suspended in fresh culture solution before the microscopic examination was performed. In FIG. 8A, “L” indicates the cells to which FAM-PCPP11 was added, “LL” indicates the cells to which FAM-LL was added, and “Ld” indicates the cells to which FAM-Ld was added. Further, the fluorescent images in the BxPC3 cells indicate a representative example of pancreatic cancer cells.
Furthermore, FIG. 8B is a graph quantifying the fluorescence detected in each of the above cells in FIG. 8A, with the fluorescence intensity detected in each cell shown relative to a value of 1.0 for the fluorescence detected in the H2110 cells, which is a cell line derived from an adenocarcinoma in a human non-small-cell lung cancer system, to which each of the FAM-PCPP11 and FAM-LL peptides had been added.
Further, each of FAM-PCPP11, FAM-LL and FAM-NmLL was added to each of the cells shown in Table 8 in an amount sufficient to achieve a final concentration in the medium of 2 μM, and following cultivation of the cells at 37° C. for 2 hours, the sample was washed 3 times with a medium containing no peptide to remove any peptide within the medium. Subsequently, the incorporation of each of the peptides into each of the cells was evaluated visually using an inverted fluorescence microscope. […]

[2] = system: scirrhous pancreatic cancer model mice (BxPC3, MIA-Paca2, AsPC1 or Capan-2 cells with hMSC); assay: Selective absorption of FAM-NmLL in tissues of scirrhous pancreatic cancer model mice (Test Example 7); format: in vivo, NOD/SCID, KPC and KC mouse; settings: 200 μg into the caudal vein, 30 minutes after administration; all of the mouse models
Method: FAM-NmLL was administered to pancreatic cancer model mice having scirrhous carcinoma, and the selective absorption of the FAM-NmLL in various tissues of the mouse was confirmed. A scirrhous pancreatic cancer model mouse having scirrhous carcinoma that forms abundant tumor-stroma interactions was produced in accordance with the method disclosed in the above Reference Document 1. Specifically, a 6-week old NOD/SCID mouse (CLEA Japan Inc., Japan), a Pdx1-Cre/KRAS^G12D (KC) mouse having a mutation in K-Ras, and a Pdx1-Cre/KRAS^G12D; p53^R172H (KPC) mouse having pancreatic cancer-specific mutations in K-Ras and p53 were raised under pathogen-free conditions. […]
FAM-NmLL (200 μg) was injected into the caudal vein of each of the obtained scirrhous pancreatic cancer model mice. Subsequently, the pharmacokinetics of the peptide 30 minutes after administration were analyzed by tissue analysis of the freshly dissected specimen of the peptide-administered mouse. […]

absorption into the cancer cell nests inside the tumor tissues [2]: strong absorption
absorption into the tumor tissues (main lesions and metastatic lesions) [2]: strong absorption
Structure (SMILES): C[C@@H](O)[C@H](NC(=O)[C@@H](NC(=O)[C@@H]1CCCN1C(=O)[C@H](CCCNC(=N)N)NC(=O)[C@H](CCCNC(=N)N)NC(=O)CNC(=O)[C@@H]1CCCN1C(=O)[C@H](CCCCN)NC(=O)[C@H](Cc1c[nH]cn1)NC(=O)[C@H](Cc1c[nH]c2ccccc12)NC(=O)[C@@H](NC(=O)[C@@H](NC(=O)[C@@H]1CCCN1C(=O)[C@H](CCCNC(=N)N)N(C)C(=O)[C@H](CCCNC(=N)N)NC(=O)c1ccc2c(c1)C(=O)OC21c2ccc(O)cc2Oc2cc(O)ccc21)[C@@H](C)O)[C@@H](C)O)[C@@H](C)O)C(=O)N[C@@H](Cc1c[nH]c2ccccc12)C(=O)N[C@@H](Cc1c[nH]cn1)C(=O)N[C@@H](CCCCN)C(=O)N1CCC[C@H]1C(=O)O [FAM-NmLL] (5FAM-R[NMeR]PTTWHKPGRRPTTWHKP-OH; C-terminus assumed)
fluorescence compared with the sample containing FAM-PCPP11 [1]: stronger fluorescence
